Laboratory results taken from PubChem BioAssay AID743371 (Vanderbilt Specialized Chemistry Center, 2014).
The source made the active and inactive calls. The rule behind the calls is not given here.

molecular target: D(4) dopamine receptor (Homo sapiens) (UniProt P21917); assay: DRD4 antagonism, single-point inhibition (AID 743371); conditions: D4 receptor antagonist assay; at 10 µM; stronger effect = higher value

inhibition	SMILES
35% (inactive)	c1ccc(CCC2CN(Cc3cccnc3)CCO2)cc1 (stereo not given)
54%	Cc1ccccc1CN1CCOC(CCc2ccccc2)C1 (stereo not given)
74%	c1ccc(CCC2CN(Cc3ccccc3)CCO2)cc1 (stereo not given)
94%	FC(F)(F)Oc1ccc(CN2CCOC(CCc3ccccc3)C2)cc1 (stereo not given)
23% (inactive)	c1ccc(CCC2CN(Cc3ccccn3)CCO2)cc1 (stereo not given)
5% (inactive)	c1ccc(CCC2CN(c3ccccc3)CCO2)cc1 (stereo not given)
7% (inactive)	O=C(c1ccc(Cl)cc1)N1CCOC(CCc2ccccc2)C1 (stereo not given)
17% (inactive)	Cc1ccc(C(=O)N2CCOC(CCc3ccccc3)C2)cc1 (stereo not given)
98%	COc1ccc(CN2CCOC(CCc3ccccc3)C2)cc1 (stereo not given)
13% (inactive)	c1ccc(CCC2CN(Cc3ccncc3)CCO2)cc1 (stereo not given)
44% (inactive)	COc1ccc(CN2CCO[C@@H](CCc3ccccc3)C2)cc1
-8% (inactive)	O=S(=O)(c1ccc(F)cc1)N1CCOC(CCc2ccccc2)C1 (stereo not given)
97%	Clc1ccc(CN2CCOC(CCc3ccccc3)C2)cc1 (stereo not given)
6% (inactive)	Cc1ccc(N2CCOC(CCc3ccccc3)C2)cc1 (stereo not given)
51%	Fc1cccc(F)c1CN1CCOC(CCc2ccccc2)C1 (stereo not given)
96%	FC(F)(F)Oc1ccc(CN2CCO[C@H](CCc3ccccc3)C2)cc1
86%	COc1ccc(CN2CCO[C@H](CCc3ccccc3)C2)cc1
96%	Clc1ccc(CN2CCO[C@H](CCc3ccccc3)C2)cc1
25% (inactive)	FC(F)(F)Oc1ccc(CN2CCO[C@@H](CCc3ccccc3)C2)cc1
88%	FC(F)(F)Oc1cccc(CN2CCOC(CCc3ccccc3)C2)c1 (stereo not given)
39% (inactive)	Clc1ccc(CN2CCO[C@@H](CCc3ccccc3)C2)cc1
88%	Fc1ccc(CN2CCOC(CCc3ccccc3)C2)cc1 (stereo not given)
16% (inactive)	O=C(Nc1ccc(Cl)cc1)N1CCOC(CCc2ccccc2)C1 (stereo not given)
13% (inactive)	O=S(=O)(c1ccccc1Cl)N1CCOC(CCc2ccccc2)C1 (stereo not given)

Continued, compound first:

SMILES	inhibition
O=C(c1cccc(F)c1)N1CCOC(CCc2ccccc2)C1 (stereo not given)	1% (inactive)
O=C(Nc1cccc(F)c1)N1CCOC(CCc2ccccc2)C1 (stereo not given)	-11% (inactive)
O=C(Nc1ccc(F)cc1)N1CCOC(CCc2ccccc2)C1 (stereo not given)	5% (inactive)
O=C(c1ccccc1)N1CCOC(CCc2ccccc2)C1 (stereo not given)	5% (inactive)
Cc1cccc(S(=O)(=O)N2CCOC(CCc3ccccc3)C2)c1 (stereo not given)	13% (inactive)
O=C(c1cccnc1)N1CCOC(CCc2ccccc2)C1 (stereo not given)	18% (inactive)
O=C(c1ccno1)N1CCOC(CCc2ccccc2)C1 (stereo not given)	-14% (inactive)
O=S(=O)(c1ccc2ccccc2c1)N1CCOC(CCc2ccccc2)C1 (stereo not given)	-3% (inactive)
Cc1ccccc1NC(=O)N1CCOC(CCc2ccccc2)C1 (stereo not given)	15% (inactive)
Cc1ccc(NC(=O)N2CCOC(CCc3ccccc3)C2)cc1 (stereo not given)	12% (inactive)
O=C(c1cc(F)c(F)c(F)c1)N1CCOC(CCc2ccccc2)C1 (stereo not given)	10% (inactive)
Cc1cc(C)c(C(=O)N2CCOC(CCc3ccccc3)C2)c(C)c1 (stereo not given)	-8% (inactive)
O=C(c1ccc2c(c1)OCCO2)N1CCOC(CCc2ccccc2)C1 (stereo not given)	-4% (inactive)
O=C(c1ccc2ccccc2n1)N1CCOC(CCc2ccccc2)C1 (stereo not given)	-1% (inactive)
c1ccc(CCC2CN(c3ccc4ncccc4c3)CCO2)cc1 (stereo not given)	16% (inactive)
COc1ccc(NC(=O)N2CCOC(CCc3ccccc3)C2)cc1 (stereo not given)	-2% (inactive)
O=S(=O)(c1cccc(F)c1)N1CCOC(CCc2ccccc2)C1 (stereo not given)	13% (inactive)
O=C(Nc1ccccc1F)N1CCOC(CCc2ccccc2)C1 (stereo not given)	4% (inactive)
O=C(Nc1ccccc1)N1CCOC(CCc2ccccc2)C1 (stereo not given)	3% (inactive)
O=C(Nc1ccccc1Cl)N1CCOC(CCc2ccccc2)C1 (stereo not given)	2% (inactive)
O=S(=O)(c1ccccc1)N1CCOC(CCc2ccccc2)C1 (stereo not given)	2% (inactive)
COc1ccc(C(=O)N2CCOC(CCc3ccccc3)C2)cc1 (stereo not given)	-5% (inactive)
Cn1c(N2CCOC(CCc3ccccc3)C2)nc2ccccc21 (stereo not given)	17% (inactive)
O=S(=O)(c1ccccc1F)N1CCOC(CCc2ccccc2)C1 (stereo not given)	9% (inactive)
CC(C)(C)c1ccc(S(=O)(=O)N2CCOC(CCc3ccccc3)C2)cc1 (stereo not given)	5% (inactive)
O=S(=O)(c1ccccc1OC(F)(F)F)N1CCOC(CCc2ccccc2)C1 (stereo not given)	6% (inactive)
